In brackets after ≈: the same amount, converted by molar mass. Activity calls are given as the source filed them. The rule behind the calls is not given here.
Assays:
[1] = Half life in Han Wistar rat at 0.2 mg/kg, iv and measured upto 24 hrs; assay type: ADME, organism-based; settings: in vivo
[2] = molecular target: T1, Platelet-derived growth factor receptor beta (Homo sapiens, UniProt P09619); experiment: Inhibition of PDGFRB (unknown origin) using 33P-ATP as substrate incubated for 120 mins by radiometric kinase assay
T1 sequence (P09619 whole entry): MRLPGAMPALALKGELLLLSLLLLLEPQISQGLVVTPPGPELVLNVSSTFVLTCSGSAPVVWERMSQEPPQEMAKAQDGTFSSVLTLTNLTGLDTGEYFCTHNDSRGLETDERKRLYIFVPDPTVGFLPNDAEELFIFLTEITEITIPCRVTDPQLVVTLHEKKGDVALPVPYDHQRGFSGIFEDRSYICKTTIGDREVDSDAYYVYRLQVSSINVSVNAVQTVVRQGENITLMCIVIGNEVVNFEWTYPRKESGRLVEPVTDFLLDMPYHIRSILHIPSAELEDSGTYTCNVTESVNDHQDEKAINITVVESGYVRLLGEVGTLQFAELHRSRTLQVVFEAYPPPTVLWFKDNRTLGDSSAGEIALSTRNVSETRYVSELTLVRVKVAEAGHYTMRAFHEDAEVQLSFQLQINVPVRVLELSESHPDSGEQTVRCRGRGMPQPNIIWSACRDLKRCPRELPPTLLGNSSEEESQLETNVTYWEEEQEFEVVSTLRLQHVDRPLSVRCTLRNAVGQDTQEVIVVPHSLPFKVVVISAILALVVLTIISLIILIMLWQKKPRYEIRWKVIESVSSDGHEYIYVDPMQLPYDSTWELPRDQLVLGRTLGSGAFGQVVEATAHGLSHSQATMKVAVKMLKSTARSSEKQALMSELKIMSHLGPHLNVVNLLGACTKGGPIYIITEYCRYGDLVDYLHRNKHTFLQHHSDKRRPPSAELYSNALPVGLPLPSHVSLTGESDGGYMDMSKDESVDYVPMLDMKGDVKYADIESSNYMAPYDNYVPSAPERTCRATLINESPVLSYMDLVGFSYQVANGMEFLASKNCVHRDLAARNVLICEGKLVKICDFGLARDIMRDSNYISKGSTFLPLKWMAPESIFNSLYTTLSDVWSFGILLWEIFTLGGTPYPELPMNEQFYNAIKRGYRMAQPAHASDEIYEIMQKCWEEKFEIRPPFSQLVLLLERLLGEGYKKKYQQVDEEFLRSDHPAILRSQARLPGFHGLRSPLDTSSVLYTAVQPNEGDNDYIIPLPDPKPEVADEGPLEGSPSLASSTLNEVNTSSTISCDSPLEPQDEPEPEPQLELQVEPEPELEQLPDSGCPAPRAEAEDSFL

[3] = molecular target: Receptor-type tyrosine-protein kinase FLT3 (Homo sapiens) (UniProt P36888); experiment: Binding affinity to human FLT3 in human HEK293 cells at 1 uM by NanoBRET assay; assay type: cell-based
Receptor-type tyrosine-protein kinase FLT3 (Homo sapiens), sequence (P36888 whole entry): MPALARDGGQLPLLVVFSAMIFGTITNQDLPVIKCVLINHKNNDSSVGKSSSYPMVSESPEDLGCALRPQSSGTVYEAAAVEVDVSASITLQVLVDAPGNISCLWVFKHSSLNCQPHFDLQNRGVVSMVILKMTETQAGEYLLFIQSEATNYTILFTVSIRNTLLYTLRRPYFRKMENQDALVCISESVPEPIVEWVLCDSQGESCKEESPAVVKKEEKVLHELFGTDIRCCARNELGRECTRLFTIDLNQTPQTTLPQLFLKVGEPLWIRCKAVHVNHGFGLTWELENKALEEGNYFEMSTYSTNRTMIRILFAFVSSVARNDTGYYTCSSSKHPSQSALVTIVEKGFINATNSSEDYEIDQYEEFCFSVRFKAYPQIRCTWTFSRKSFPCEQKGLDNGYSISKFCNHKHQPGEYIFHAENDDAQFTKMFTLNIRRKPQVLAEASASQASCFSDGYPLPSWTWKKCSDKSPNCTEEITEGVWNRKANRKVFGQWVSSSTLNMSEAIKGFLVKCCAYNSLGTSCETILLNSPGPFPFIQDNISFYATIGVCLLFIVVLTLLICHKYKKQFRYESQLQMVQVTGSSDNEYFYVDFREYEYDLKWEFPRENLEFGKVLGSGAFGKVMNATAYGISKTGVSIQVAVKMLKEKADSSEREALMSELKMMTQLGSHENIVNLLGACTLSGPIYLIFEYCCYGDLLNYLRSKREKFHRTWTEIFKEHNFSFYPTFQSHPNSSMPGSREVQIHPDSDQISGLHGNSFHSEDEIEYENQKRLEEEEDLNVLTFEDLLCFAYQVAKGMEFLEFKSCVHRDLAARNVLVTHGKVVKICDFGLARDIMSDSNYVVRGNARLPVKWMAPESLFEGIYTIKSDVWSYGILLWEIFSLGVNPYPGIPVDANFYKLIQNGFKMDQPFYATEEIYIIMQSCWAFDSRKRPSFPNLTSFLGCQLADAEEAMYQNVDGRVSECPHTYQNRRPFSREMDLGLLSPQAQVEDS

[4] = Octanol-water distribution coefficient, logD of the compound at pH 7.4; assay type: physicochemical
[5] = Plasma clearance in Beagle dog at 0.2 mg/kg, iv and measured upto 24 hrs; assay type: ADME, organism-based, Canis lupus familiaris
[6] = Dissociation constant, pKa of the compound; assay type: physicochemical
[7] = Oral biovailability in Han Wistar rat at 30 mg/kg and measured upto 24 hrs; assay type: ADME, organism-based; settings: in vivo
[8] = Plasma clearance in CD-1 mouse at 0.2 mg/kg, iv and measured upto 24 hrs; assay type: ADME, organism-based
[9] = molecular target: T2, Tyrosine-protein kinase Lck (Homo sapiens, UniProt P06239); experiment: Inhibition of LCK (unknown origin) using 33P-ATP as substrate incubated for 120 mins by radiometric kinase assay
[10] = Solubility of compound in FaSSIF at pH 6.5; assay type: physicochemical
[11] = Volume of distribution at steady state in Cynomolgus monkey at 0.2 mg/kg, iv and measured upto 24 hrs; assay type: ADME, organism-based, Macaca fascicularis; settings: in vivo, read-out: Vdss
[12] = Oral bioavailability in CD-1 mouse at 10 mg/kg and measured upto 24 hrs; assay type: ADME, organism-based; settings: in vivo
[13] = molecular target: T3, Macrophage colony-stimulating factor 1 receptor (Homo sapiens, UniProt P07333); experiment: Inhibition of CSF1R (unknown origin) at 1 uM using 33P-ATP as substrate incubated for 120 mins by radiometric kinase assay
[14] = molecular target: T3, Macrophage colony-stimulating factor 1 receptor; experiment: Inhibition of CSF1R (unknown origin) using 33P-ATP as substrate incubated for 120 mins by radiometric kinase assay
[15] = molecular target: T4, Platelet-derived growth factor receptor alpha (Homo sapiens, UniProt P16234); experiment: Inhibition of PDGFRA (unknown origin) using 33P-ATP as substrate incubated for 120 mins by radiometric kinase assay
T4 sequence (P16234 whole entry): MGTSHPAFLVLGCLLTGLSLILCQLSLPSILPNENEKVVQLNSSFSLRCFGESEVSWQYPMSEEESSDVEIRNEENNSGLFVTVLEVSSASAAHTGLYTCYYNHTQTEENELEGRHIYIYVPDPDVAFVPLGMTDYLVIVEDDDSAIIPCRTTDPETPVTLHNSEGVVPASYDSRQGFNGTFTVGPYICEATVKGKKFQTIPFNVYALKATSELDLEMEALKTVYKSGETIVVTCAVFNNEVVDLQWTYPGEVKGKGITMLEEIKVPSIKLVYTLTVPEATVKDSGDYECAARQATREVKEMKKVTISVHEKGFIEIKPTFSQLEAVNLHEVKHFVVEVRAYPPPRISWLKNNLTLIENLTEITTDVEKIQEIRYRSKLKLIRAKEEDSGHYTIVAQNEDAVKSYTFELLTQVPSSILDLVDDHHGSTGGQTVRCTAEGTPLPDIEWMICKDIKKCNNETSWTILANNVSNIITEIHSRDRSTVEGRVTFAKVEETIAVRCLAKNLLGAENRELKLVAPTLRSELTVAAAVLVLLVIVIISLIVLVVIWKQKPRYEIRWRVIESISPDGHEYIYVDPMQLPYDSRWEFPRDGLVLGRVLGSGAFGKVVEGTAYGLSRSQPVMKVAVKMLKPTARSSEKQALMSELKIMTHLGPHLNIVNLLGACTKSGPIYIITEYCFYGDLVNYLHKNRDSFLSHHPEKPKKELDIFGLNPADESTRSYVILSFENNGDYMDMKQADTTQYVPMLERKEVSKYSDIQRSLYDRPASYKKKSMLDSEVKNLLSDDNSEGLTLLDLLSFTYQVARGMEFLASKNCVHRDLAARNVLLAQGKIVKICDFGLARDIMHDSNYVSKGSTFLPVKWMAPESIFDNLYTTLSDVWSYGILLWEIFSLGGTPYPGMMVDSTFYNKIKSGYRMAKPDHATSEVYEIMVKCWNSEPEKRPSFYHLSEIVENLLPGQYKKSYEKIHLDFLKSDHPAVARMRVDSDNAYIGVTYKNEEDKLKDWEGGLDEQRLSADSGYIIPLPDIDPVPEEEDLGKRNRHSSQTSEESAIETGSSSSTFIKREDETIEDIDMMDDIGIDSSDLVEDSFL

[16] = Apparent passive permeability of compound in human Caco-2 cells at 1 uM and measured after 2 hrs by LC-MS/MS analysis; assay type: ADME, cell-based
[17] = Genotoxicity in Salmonella typhimurium by Ames test; assay type: toxicity; settings: salmonella enterica subsp. enterica serovar typhimurium
[18] = molecular target: T5, Mast/stem cell growth factor receptor Kit (Homo sapiens, UniProt P10721); experiment: Inhibition of wild type KIT (unknown origin) at 1 uM using 33P-ATP as substrate incubated for 120 mins by radiometric kinase assay
Target sequence in this assay (P10721 whole entry): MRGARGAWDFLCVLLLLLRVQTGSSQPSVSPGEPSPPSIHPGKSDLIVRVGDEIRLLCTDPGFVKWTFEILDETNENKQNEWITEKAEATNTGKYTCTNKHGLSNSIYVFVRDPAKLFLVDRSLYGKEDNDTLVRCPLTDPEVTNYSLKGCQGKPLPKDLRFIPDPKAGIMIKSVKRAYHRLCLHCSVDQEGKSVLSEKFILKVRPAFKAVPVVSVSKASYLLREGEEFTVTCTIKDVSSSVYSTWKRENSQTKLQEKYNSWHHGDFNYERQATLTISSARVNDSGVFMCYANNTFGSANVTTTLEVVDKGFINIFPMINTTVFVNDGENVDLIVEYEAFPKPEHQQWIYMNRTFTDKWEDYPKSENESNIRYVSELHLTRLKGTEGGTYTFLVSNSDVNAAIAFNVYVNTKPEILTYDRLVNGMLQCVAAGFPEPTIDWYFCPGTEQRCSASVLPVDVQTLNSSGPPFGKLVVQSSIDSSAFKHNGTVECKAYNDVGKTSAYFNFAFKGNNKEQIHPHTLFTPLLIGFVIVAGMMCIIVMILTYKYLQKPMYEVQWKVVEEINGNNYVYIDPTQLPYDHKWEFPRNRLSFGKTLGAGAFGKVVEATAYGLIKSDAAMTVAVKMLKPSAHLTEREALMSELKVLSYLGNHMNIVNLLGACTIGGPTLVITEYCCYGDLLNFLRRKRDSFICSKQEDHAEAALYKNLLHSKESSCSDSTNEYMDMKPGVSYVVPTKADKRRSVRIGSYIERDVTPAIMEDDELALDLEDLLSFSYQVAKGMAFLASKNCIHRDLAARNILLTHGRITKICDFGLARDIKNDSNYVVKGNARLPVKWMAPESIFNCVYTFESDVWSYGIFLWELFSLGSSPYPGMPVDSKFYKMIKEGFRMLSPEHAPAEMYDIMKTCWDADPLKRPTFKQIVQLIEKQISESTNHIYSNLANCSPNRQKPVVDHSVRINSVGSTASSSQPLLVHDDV

[19] = Half life in CD-1 mouse at 0.2 mg/kg, iv and measured upto 24 hrs; assay type: ADME, organism-based; settings: in vivo
[20] = molecular target: T2, Tyrosine-protein kinase Lck; experiment: Inhibition of LCK (unknown origin) at 1 uM using 33P-ATP as substrate incubated for 120 mins by radiometric kinase assay
Target sequence in this assay (P06239 2-509 limits assumed): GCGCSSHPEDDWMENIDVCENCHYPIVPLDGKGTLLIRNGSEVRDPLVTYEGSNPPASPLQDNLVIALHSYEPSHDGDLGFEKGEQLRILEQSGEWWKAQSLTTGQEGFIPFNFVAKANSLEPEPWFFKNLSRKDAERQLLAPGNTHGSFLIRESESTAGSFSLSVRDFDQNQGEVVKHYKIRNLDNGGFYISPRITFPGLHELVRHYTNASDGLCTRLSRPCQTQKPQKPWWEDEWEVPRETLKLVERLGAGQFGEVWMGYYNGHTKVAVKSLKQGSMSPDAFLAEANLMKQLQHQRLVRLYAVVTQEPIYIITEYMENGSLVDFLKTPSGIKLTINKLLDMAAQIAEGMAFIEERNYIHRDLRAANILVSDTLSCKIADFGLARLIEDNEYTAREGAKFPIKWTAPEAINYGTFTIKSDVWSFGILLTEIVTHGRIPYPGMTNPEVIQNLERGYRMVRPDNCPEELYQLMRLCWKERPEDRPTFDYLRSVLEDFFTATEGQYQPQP

[21] = Volume of distribution at steady state in Han Wistar rat at 0.2 mg/kg, iv and measured upto 24 hrs; assay type: ADME, organism-based; settings: in vivo, read-out: Vdss
[22] = Oral bioavailability in Beagle dog at 20 mg/kg and measured upto 24 hrs; assay type: ADME, organism-based, Canis lupus familiaris; settings: in vivo
[23] = tested on: Mast/stem cell growth factor receptor Kit (Homo sapiens), P10721 [V559D]; experiment: Inhibition of recombinant human KIT V559D mutant in exon 11 using polyGT and ATP as substrate preincubated for 20 mins followed by substrate addition and measured after 240 mins by FRET assay; settings: time 260.0 min
[24] = molecular target: T5, Mast/stem cell growth factor receptor Kit; experiment: Binding affinity to wild type human KIT in human HEK293 cells at 1 uM by NanoBRET assay; assay type: cell-based
Target sequence in this assay (P10721 whole entry): as the sequence (P10721 whole entry) above

[25] = Plasma clearance in Cynomolgus monkey at 0.2 mg/kg, iv and measured upto 24 hrs; assay type: ADME, organism-based, Macaca fascicularis
[26] = molecular target: Receptor-type tyrosine-protein kinase FLT3 (Homo sapiens) (UniProt P36888); experiment: Inhibition of FLT3 (unknown origin) at 1 uM using 33P-ATP as substrate incubated for 120 mins by radiometric kinase assay
[27] = Half life in Beagle dog at 0.2 mg/kg, iv and measured upto 24 hrs; assay type: ADME, organism-based, Canis lupus familiaris; settings: in vivo
[28] = molecular target: T4, Platelet-derived growth factor receptor alpha; experiment: Inhibition of PDGFRA (unknown origin) at 1 uM using 33P-ATP as substrate incubated for 120 mins by radiometric kinase assay
[29] = Oral bioavailability in Cynomolgus monkey at 5 mg/kg and measured upto 24 hrs; assay type: ADME, organism-based, Macaca fascicularis; settings: in vivo
[30] = molecular target: T5, Mast/stem cell growth factor receptor Kit; assay type: cell-based; settings: gist430
[31] = Volume of distribution at steady state in Beagle dog at 0.2 mg/kg, iv and measured upto 24 hrs; assay type: ADME, organism-based, Canis lupus familiaris; settings: in vivo, read-out: Vdss
[32] = tested on: Mast/stem cell growth factor receptor Kit (Homo sapiens), P10721 [T670I]; experiment: Inhibition of recombinant human KIT T670I mutant in exon 14 using polyGT and ATP as substrate preincubated for 20 mins followed by substrate addition and measured after 240 mins by FRET assay; settings: time 260.0 min
[33] = tested on: Mast/stem cell growth factor receptor Kit (Homo sapiens), P10721 [V559A]; experiment: Inhibition of recombinant human KIT V559A mutant in exon 11 using polyGT and ATP as substrate preincubated for 20 mins followed by substrate addition and measured after 240 mins by FRET assay; settings: time 260.0 min
[34] = molecular target: T5, Mast/stem cell growth factor receptor Kit; experiment: Inhibition of wild type KIT (unknown origin) using 33P-ATP as substrate incubated for 120 mins by radiometric kinase assay
Target sequence in this assay (P10721 whole entry): as above

GIST430 = assay type: functional, cell-based; settings: Homo sapiens, dose 10.0 µM
GIST-430/654 = assay type: functional, organism-based; settings: Homo sapiens, dose 10-35 mg/kg, route po, time 30.0 day
[35] = molecular target: T1, Platelet-derived growth factor receptor beta; experiment: Inhibition of PDGFRB (unknown origin) at 1 uM using 33P-ATP as substrate incubated for 120 mins by radiometric kinase assay
[36] = tested on: Mast/stem cell growth factor receptor Kit (Homo sapiens), P10721 [UNDEFINED MUTATION]; experiment: Inhibition of recombinant human KIT (557 to 558 residues) activating deletion mutant in exon 11 using polyGT and ATP as substrate preincubated for 20 mins followed by substrate addition and measured after 240 mins by FRET assay; settings: time 260.0 min
[37] = molecular target: Mast/stem cell growth factor receptor Kit (Homo sapiens, UniProt P10721, DELTA560/V654A); assay type: cell-based, GIST-430/654
[38] = Half life in Cynomolgus monkey at 0.2 mg/kg, iv and measured upto 24 hrs; assay type: ADME, organism-based, Macaca fascicularis; settings: in vivo
[39] = tested on: Mast/stem cell growth factor receptor Kit (Homo sapiens), P10721 [V560G]; experiment: Inhibition of recombinant human KIT V560G mutant in exon 11 using polyGT and ATP as substrate preincubated for 20 mins followed by substrate addition and measured after 240 mins by FRET assay; settings: time 260.0 min
[40] = Metabolic stability in human hepatocytes assessed as intrinsic clearance measured per million cells; assay type: ADME, cell-based, Hepatocyte; settings: read-out: CLH
[41] = molecular target: hERG (KCNH2) potassium channel (Homo sapiens, UniProt Q12809); experiment: Inhibition of human ERG potassium channel transfected in HEK293 cells at holding potential -80 mV at 10 uM and measured for 5 mins by whole cell patch clamp assay; assay type: toxicity, cell-based; settings: HEK293 cells transfected with hERG
[42] = Volume of distribution at steady state in CD-1 mouse at 0.2 mg/kg, iv and measured upto 24 hrs; assay type: ADME, organism-based; settings: in vivo, read-out: Vdss

## Cn1cc(-c2ccc(CNc3cc(-c4cnc5cc(OCCCN6CCCC6)ccn45)ncn3)cc2)cn1 [IDRX-42]
[1]
  half-life: 6.8 h
[2]
  IC50: 0.0026 µM
[3]
  Activity: 45%
[4]
  logD: 2.6
[5]
  clearance: 2.2 L/h/kg
[6]
  pKa: 9.7
[7]
  bioavailability: 63%
[8]
  clearance: 1.1 L/h/kg
[9]
  IC50: 0.141 µM
[10]
  solubility: 0.374 mg/mL (≈ 735 µM)
[11]
  Vd: 12.4 L/kg
[12]
  bioavailability: 46%
[13]
  inhibition: > 80%
[14]
  IC50: 0.0055 µM
[15]
  IC50: 0.05 µM
[16]
  Papp at 2 h, 1 µM: 57 nm/s
[17]
  Activity: Non-Toxic
[18]
  inhibition: > 80%
[19]
  half-life: 6.9 h
[20]
  inhibition: > 80%
[21]
  Vd: 23.2 L/kg
[22]
  bioavailability: 80%
[23]
  inhibition: Active
[24]
  Activity: 65%
[25]
  clearance: 2.2 L/h/kg
[26]
  inhibition: > 80%
[27]
  half-life: 9.6 h
[28]
  inhibition: > 80%
[29]
  bioavailability: 31%
[30]
  IC50: 0.004 µM
[31]
  Vd: 34.6 L/kg
[32]
  inhibition: inactive
[33]
  inhibition: Active
[34]
  IC50: 0.044 µM
GIST430
  Activity: inactive
GIST-430/654
  inhibition: Dose-Dependent Effect
[35]
  inhibition: > 80%
[36]
  inhibition: Active
[37]
  IC50: 0.048 µM
[38]
  half-life: 4.4 h
[39]
  inhibition: Active
[40]
  hepatocyte CLint: 21 µL/min/1e6 cells
[41]
  inhibition at 5 min, 10 µM: -86%
[42]
  Vd: 11 L/kg

Reference: ChEMBL document CHEMBL5380790 (J Med Chem, 2023)
